# Results: patent US9458113B2 (Boehringer Ingelheim International GmbH, priority 2014, dated 2016)
# How the values were obtained:
# human hepatocytes = assay: Metabolic stability with human hepatocytes; assay type: in vitro ADME; conditions: 1 μM test compound, well stirred model
# Procedure: Assay for the Determination of Metabolic Stability with Human Hepatocytes
# The metabolic degradation of the test compound is assayed in a human hepatocyte suspension. Human hepatocytes (typically cryopreserved) are incubated in an appropriate buffer system (e.g. Dulbecco's modified eagle medium plus 3.5 μg glucagon/500 mL, 2.5 mg insulin/500 mL and 3.75 mg/500 mL hydrocortison) containing 5% species serum. Following a (typically) […] preincubation in an incubator (37° C., 10% CO2), 5 μl of test compound solution (80 μM; from […] stock solution in DMSO diluted 1:25 with medium) are added into 395 μl hepatocyte suspension (cell density in the range 0.25-5*10^6 cells/mL, typically 1*10^6 cells/mL; final concentration of test compound 1 μM, final DMSO concentration 0.05%). The cells are incubated for six hours (incubator, orbital shaker) and samples (25 μl) are taken at 0, 0.5, 1, 2, 4 and 6 hours. Samples are transferred into acetonitrile and pelleted by centrifugation (5 min) The supernatant is transferred to a new 96-deepwell plate, evaporated under nitrogen and resuspended. The decline of parent compound is analyzed by LC-MS/MS.
# The intrinsic clearance CL_[…] is calculated as follows: CL_[…]=Dose/AUC=(C0/CD)/(AUD+clast/k)*1,000/60
# (C0: initial concentration in the incubation [μM], CD: cell density of vital cells [10^6 cells/mL], AUD: area under the data [μM*h], clast: concentration of last data point [μM], k: slope of the regression line for parent decline [h^−1])
# The calculated in vitro hepatic intrinsic clearance Qh can be scaled up to the intrinsic in vivo hepatic clearance and used to predict hepatic in vivo blood clearance (CL) by the use of a liver model (well stirred model): CL_[…]_INVIVO [ml/min/kg]=(CL_[…] [μL/min/10^6 cells]*hepatocellularity [10^6 cells/g liver]*liver factor [g/kg bodyweight])/1,000 CL [ml/min/kg]=CL_[…]_INVIVO [ml/min/kg]*hepatic blood flow [ml/min/kg]/(CL_[…]_INVIVO [ml/min/kg]+hepatic blood flow [ml/min/kg]) Qh [%]=CL [ml/min/kg]/hepatic blood flow [ml/min/kg])
# (Hepatocellularity, human: 120*10^6 cells/g liver; liver factor, human: 25.7 g/kg bodyweight; blood flow, human: 21 ml/(min*kg))
# The calculated in-vitro hepatic intrinsic clearance values of selected compounds in the metabolic stability assay with human hepatocytes described above are listed in Table 15.
# [1] = Drug transport across human Caco-2 cells; assay type: in vitro ADME; conditions: apparent permeability coefficient, Caco-2 monolayers, pH 7.2, 37° C.; for Papp A→B at 10 µM: apical-to-basal (absorptive), read-out: PEAB; for Papp B→A at 10 µM: basal-to-apical (secretory), read-out: PEBA
# Text: Assay for Determination of Drug Transport Across Human Caco-2 Cells
# The assay provides information on the potential of a compound to pass the cell membrane, on the extent of oral absorption as well as on whether the compound is actively transported by uptake and/or efflux transporters. For the measurement of permeability across polarized, confluent human cancer colon carcinoma cells 2 (Caco-2) cell monolayers grown on permeable filter supports are used as the in vitro absorption model.
# Apparent permeability coefficients (PE) of the compounds across the Caco-2 monolayers are measured (pH 7.2, 37° C.) in apical-to-basal (AB) (absorptive) and basal-to-apical (BA) (secretory) transport direction. AB permeability (PEAB) represents drug absorption from the intestine into the blood and BA permeability (PEBA) drug secretion from the blood back into the intestine via both passive permeability as well as active transport mechanisms mediated by efflux and uptake transporters that are expressed on the Caco-2 cells. The compounds are assigned to permeability/absorption classes by comparison of the AB permeabilities with the AB permeabilities of reference compounds with known in vitro permeability and oral absorption in the human. Identical or similar permeabilities in both transport directions indicate passive permeation, vectorial permeability points to additional active transport mechanisms. […] Active transport is concentration-dependently saturable.
# Caco-2 cells (1-2*10^5 cells/cm^2 area) are seeded on filter inserts (Costar transwell polycarbonate or PET filters, 0.4 μm pore size) and cultured (DMEM) for 10 to 25 days. Compounds are dissolved in appropriate solvent (like DMSO, […] stock solutions). Stock solutions are diluted with HTP-4 buffer (128.13 mM NaCl, 5.36 mM KCl, 1 mM MgSO4, 1.8 mM CaCl2, 4.17 mM NaHCO3, 1.19 mM Na2HPO4x7H2O, 0.41 mM NaH2PO4xH2O, 15 mM HEPES, 20 mM glucose, pH 7.2) to prepare the transport solutions (typically 10 μM compound, final DMSO<=0.5%). The transport solution (TL) is applied to the apical or basolateral donor side for measuring A-B or B-A permeability (3 filter replicates), respectively. The receiver side contains HTP-4 buffer supplemented with 2% BSA. Samples are collected at the start and end of experiment from the donor and at various time intervals for up to 2 hours also from the receiver side for concentration measurement by LC-MS/MS or scintillation counting. Sampled receiver volumes are replaced with fresh receiver solution.
# The apparent permeability coefficients (PEAB and PEBA) of selected compounds in the Caco-2 drug transport assay described above are listed in Table 16.
# [2] = target: neutrophil elastase in zymosan-stimulated human plasma (Homo sapiens (Human), UniProt P08246); assay: Neutrophil elastase inhibitory activity in human plasma; assay type: biochemical; conditions: human plasma from zymosan-stimulated blood
# [3] = target: Human neutrophil elastase (Homo sapiens (Human), UniProt P08246); assay: Human Neutrophil Elastase Assay; assay type: biochemical; conditions: substrate MeOSuc-Ala-Ala-Pro-Val-AMC 250 μM, pH 7.5
# [4] = Metabolic stability with human liver microsomes; assay type: in vitro ADME; conditions: pH 7.6; pooled human liver microsomes, 1 μM test compound, 37° C.; read-out: t1/2 INVITRO
# [5] = Aqueous solubility (High Throughput Method); assay type: physicochemical; conditions: McIlvaine buffer pH 6.8 with 2.5% DMSO, kinetic from dmso stock, McIlvaine buffer pH 6.8, 2.5% DMSO, 24 h shaking
# Procedure: Assay for Determination of Aqueous Solubility (“High Throughput Method”)
# Starting from a […] DMSO stock solution, aliquots are diluted with acetonitrile/water (1/1) and McIlvaine buffer pH 6.8, respectively. After 24 h of shaking, the solutions or suspensions are filtered and analyzed by LC-UV. The amount dissolved in buffer is compared to the amount dissolved in the acetonitrile/water (1/1) solution. Solubility is measured from 0.001 to 0.125 mg/ml at a DMSO concentration of 2.5%. If more than 90% of the compound is dissolved in buffer, the value is marked with “>”.
# [6] = Aqueous solubility (Shaked Flask Method); assay type: physicochemical; conditions: aqueous buffer, thermodynamic from solid, pH 6.8
# Procedure: Assay for Determination of Aqueous Solubility (“Shaked Flask Method”)
# Saturated solutions are prepared in well plates by adding an appropriate volume of selected aqueous media (typically in the range of 0.25-1.5 ml) into each well which contains a known quantity of solid drug substance (typically in the range 0.5-5.0 mg). The wells are shaken or stirred for a predefined time period (typically in a range of 2-24 h) and then filtered using appropriate filter membranes (typically PTFE-filters with 0.45 μm pore size). Filter absorption is avoided by discarding the first few drops of filtrate. The amount of dissolved drug substance is determined by UV spectroscopy or by HPLC with UV-detection. In addition, the pH of the aqueous saturated solution is measured using a glass-electrode pH meter.
# Human neutrophil elastase, sequence (P08246 30-247): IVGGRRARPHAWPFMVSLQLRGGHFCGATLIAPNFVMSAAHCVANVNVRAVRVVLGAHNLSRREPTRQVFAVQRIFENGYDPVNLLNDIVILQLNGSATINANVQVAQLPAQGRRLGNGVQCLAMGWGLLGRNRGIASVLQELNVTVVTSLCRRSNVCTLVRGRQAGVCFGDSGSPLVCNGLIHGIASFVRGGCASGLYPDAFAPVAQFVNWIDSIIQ
# neutrophil elastase in zymosan-stimulated human plasma, sequence (P08246 30-247): as above
Qh (human hepatocytes) [%],Papp A→B at 10 µM [1] [×10⁻⁶ cm/s],Papp B→A at 10 µM [1] [×10⁻⁶ cm/s],EC50 [2] [nM],IC50 [3] [nM],half-life at 1 μM [4] [h],solubility at 24 h [5] [µg/mL],solubility [6] [µg/mL],Compound
5,6.2,95,–,–,–,–,–,"CN1C(=O)N(c2cccc(C(F)(F)F)c2)C2=C(C(=O)CCC2)C1c1ccc(C#N)cc1-c1ccn(C)c(=O)c1 (single isomer, unassigned) [Example 20.b, 4-[3-Methyl-2,5-dioxo-1-(3-trifluoromethyl-phenyl)-1,2,3,4,5,6,7,8-octahydro-quinazolin-4-yl]-3-(1-methyl-2-oxo-1,2-dihydro-pyridin-4-yl)-benzonitrile]"
9,14,78,2,1.8,> 2.17,–,–,CNC(=O)c1cc(C#N)ccc1[C@@H]1C2=C(CCC2=O)N(c2cccc(C(F)(F)F)c2)C(=O)N1C [Example 2.1]
24,61,76,2,< 1,2,–,–,CN1C(=O)N(c2cccc(C(F)(F)F)c2)C2=C(C(=O)CC2)C1c1ccc(C#N)cc1-c1cnn(C)c1 (centres unmarked) [Example 11.2]
16,49,72,2,2.2,> 2.17,–,–,"Cc1nnc(-c2cc(C#N)ccc2C2C3=C(CCC3=O)N(c3cccc(C(F)(F)F)c3)C(=O)N2C)o1 (centres unmarked) [Example 13.1, 4-[3-Methyl-2,5-dioxo-1-(3-trifluoromethyl-phenyl)-2,3,4,5,6,7-hexahydro-1H-cyclopentapyrimidin-4-yl]-3-(5-methyl-[1,3,4]oxadiazol-2-yl)-benzonitrile]"
–,3.5,57,4,1.2,> 2.17,–,–,"CN1C(=O)N(c2cccc(C(F)(F)F)c2)C2=C(C(=O)CCC2)C1c1ccc(C#N)cc1-c1ccn(C)c(=O)c1 (centres unmarked) [Example 15.8, 4-[3-Methyl-2,5-dioxo-1-(3-trifluoromethyl-phenyl)-1,2,3,4,5,6,7,8-octahydro-quinazolin-4-yl]-3-(1-methyl-2-oxo-1,2-dihydro-pyridin-4-yl)-benzonitrile]"
–,–,–,–,11.2,–,–,–,"CN1C(=O)N(c2ccnc(C(F)(F)F)c2)C2=C(C(=O)CC2)C1c1ccc(C#N)cc1-c1ccoc1 (centres unmarked) [Example 17, 3-Furan-3-yl-4-[3-methyl-2,5-dioxo-1-(2-trifluoromethyl-pyridin-4-yl)-2,3,4,5,6,7-hexahydro-1H-cyclopentapyrimidin-4-yl]-benzonitrile]"
–,–,–,–,50.2,–,–,–,CN1C(=O)N(c2ccnc(C(F)(F)F)c2)C2=C(C(=O)CC2)C1c1ccc(C#N)cc1-c1ccn(C)n1 (centres unmarked) [Example 17.1]
–,–,–,–,4.6,–,–,–,"CN1C(=O)N(c2ccnc(C(F)(F)F)c2)C2=C(C(=O)CC2)C1c1ccc(C#N)cc1C1=CCN(C(=O)OC(C)(C)C)CC1 (centres unmarked) [Example 17.2, 4-{5-Cyano-2-[3-methyl-2,5-dioxo-1-(2-trifluoromethyl-pyridin-4-yl)-2,3,4,5,6,7-hexahydro-1H-cyclopentapyrimidin-4-yl]-phenyl}-3,6-dihydro-2H-pyridine-1-carboxylic acid tert-butyl ester]"
–,–,–,–,10.6,–,–,–,CN1C(=O)N(c2ccnc(C(F)(F)F)c2)C2=C(C(=O)CC2)C1c1ccc(C#N)cc1-c1ccn(C)c(=O)c1 (centres unmarked) [Example 17.3]
–,–,–,–,1.7,–,–,–,"CN1C(=O)N(c2ccnc(C(F)(F)F)c2)C2=C(C(=O)CC2)C1c1ccc(C#N)cc1C1=CCNCC1 (centres unmarked) [Example 18, 4-[3-Methyl-2,5-dioxo-1-(2-trifluoromethyl-pyridin-4-yl)-2,3,4,5,6,7-hexahydro-1H-cyclopentapyrimidin-4-yl]-3-(1,2,3,6-tetrahydro-pyridin-4-yl)-benzonitrile]"
–,–,–,–,10.1,–,–,–,"N#Cc1ccc(C2NC(=O)N(c3cccc(C(F)(F)F)c3)C3=C2C(=O)CC3)c(-c2ccoc2)c1 (centres unmarked) [Example 19, 4-[2,5-Dioxo-1-(3-trifluoromethyl-phenyl)-2,3,4,5,6,7-hexahydro-1H-cyclopentapyrimidin-4-yl]-3-furan-3-yl-benzonitrile]"
–,–,–,1,< 1,> 2.17,72,> 10,"CN1C(=O)N(c2cccc(C(F)(F)F)c2)C2=C(C(=O)CCC2)[C@H]1c1ccc(C#N)cc1-c1ccn(C)c(=O)c1 [Example 20.b, 4-[3-Methyl-2,5-dioxo-1-(3-trifluoromethyl-phenyl)-1,2,3,4,5,6,7,8-octahydro-quinazolin-4-yl]-3-(1-methyl-2-oxo-1,2-dihydro-pyridin-4-yl)-benzonitrile]"
20,16,96,7,1.9,> 2.17,–,> 10,"CN1C(=O)N(c2cccc(C(F)(F)F)c2)C2=C(C(=O)CC2)[C@H]1c1ccc(C#N)cc1CNC1CCOCC1 [Example 25, 4-[(R)-3-Methyl-2,5-dioxo-1-(3-trifluoromethyl-phenyl)-2,3,4,5,6,7-hexahydro-1H-cyclopentapyrimidin-4-yl]-3-[(tetrahydro-pyran-4-ylamino)-methyl]-benzonitrile]"
